Assay results from ChEMBL document CHEMBL5724914, “Linking interpersonal differences in gut microbiota composition and drug biotransformation activity” (2024).

Details: human gut metagenome, 24 h, 2 µM
Note: call rule not given here.

Row | SMILES | Bacterial Biotransformation
1 | Cc1nc2n(c(=O)c1CCN1CCC(c3noc4cc(F)ccc34)CC1)CCCC2 [RISPERIDONE] | Compound NOT metabolized
2 | CCCC(=O)Nc1ccc(OCC(O)CNC(C)C)c(C(C)=O)c1 (stereo not given) [ACEBUTOLOL] | Compound metabolized

Assay: (§1) The drug is tested on WLS-006 corresponding to human gut metagenome with ENA study accession number: PRJEB37062 and ENA sample accession number: ERS12561741 for biotransformation under anaerobic condition. The drug concentrations were measured over 9 timepoints collected between 0 and 24 hours of incubation by liquid-chromatography-coupled mass spectrometry (LC–MS)
Details: 2 µM

Row | SMILES | Bacterial Biotransformation
3 | Cc1nc2n(c(=O)c1CCN1CCC(c3noc4cc(F)ccc34)CC1)CCCC2 [RISPERIDONE] | Compound metabolized
4 | CCCC(=O)Nc1ccc(OCC(O)CNC(C)C)c(C(C)=O)c1 (stereo not given) [ACEBUTOLOL] | Compound NOT metabolized

Assay: as §1, with “Z-009” for “WLS-006”, “pig” for “human”, “ERS12561809” for “ERS12561741”
Details: 2 µM

Row | SMILES | Bacterial Biotransformation
5 | Cc1nc2n(c(=O)c1CCN1CCC(c3noc4cc(F)ccc34)CC1)CCCC2 [RISPERIDONE] | Compound metabolized
6 | CCCC(=O)Nc1ccc(OCC(O)CNC(C)C)c(C(C)=O)c1 (stereo not given) [ACEBUTOLOL] | Compound NOT metabolized

Details: human gut metagenome, 24 h, 2 µM
Remark: another data set of the same source

Row | SMILES | Bacterial Biotransformation
7 | Cc1nc2n(c(=O)c1CCN1CCC(c3noc4cc(F)ccc34)CC1)CCCC2 [RISPERIDONE] | Compound metabolized
8 | CCCC(=O)Nc1ccc(OCC(O)CNC(C)C)c(C(C)=O)c1 (stereo not given) [ACEBUTOLOL] | Compound NOT metabolized

Assay: as §1, with “Z-001” for “WLS-006”, “mouse” for “human”, “ERS12561801” for “ERS12561741”
Details: 2 µM

Row | SMILES | Bacterial Biotransformation
9 | Cc1nc2n(c(=O)c1CCN1CCC(c3noc4cc(F)ccc34)CC1)CCCC2 [RISPERIDONE] | Compound metabolized
10 | CCCC(=O)Nc1ccc(OCC(O)CNC(C)C)c(C(C)=O)c1 (stereo not given) [ACEBUTOLOL] | Compound NOT metabolized

Assay: as §1, with “WLS-082” for “WLS-006”, “ERS12561751” for “ERS12561741”
Details: 2 µM

Row | SMILES | Bacterial Biotransformation
11 | Cc1nc2n(c(=O)c1CCN1CCC(c3noc4cc(F)ccc34)CC1)CCCC2 [RISPERIDONE] | Compound metabolized
12 | CCCC(=O)Nc1ccc(OCC(O)CNC(C)C)c(C(C)=O)c1 (stereo not given) [ACEBUTOLOL] | Compound NOT metabolized

Details: human gut metagenome, 24 h, 2 µM
Remark: another data set of the same source

Row | SMILES | Bacterial Biotransformation
13 | Cc1nc2n(c(=O)c1CCN1CCC(c3noc4cc(F)ccc34)CC1)CCCC2 [RISPERIDONE] | Compound metabolized
14 | CCCC(=O)Nc1ccc(OCC(O)CNC(C)C)c(C(C)=O)c1 (stereo not given) [ACEBUTOLOL] | Compound metabolized

Assay: as §1, with “Z-020” for “WLS-006”, “rabbit” for “human”, “ERS12561819” for “ERS12561741”
Details: 2 µM

Row | SMILES | Bacterial Biotransformation
15 | Cc1nc2n(c(=O)c1CCN1CCC(c3noc4cc(F)ccc34)CC1)CCCC2 [RISPERIDONE] | Compound metabolized
16 | CCCC(=O)Nc1ccc(OCC(O)CNC(C)C)c(C(C)=O)c1 (stereo not given) [ACEBUTOLOL] | Compound NOT metabolized

Details: human gut metagenome, 24 h, 2 µM
Remark: another data set of the same source

Row | SMILES | Bacterial Biotransformation
17 | Cc1nc2n(c(=O)c1CCN1CCC(c3noc4cc(F)ccc34)CC1)CCCC2 [RISPERIDONE] | Compound metabolized
18 | CCCC(=O)Nc1ccc(OCC(O)CNC(C)C)c(C(C)=O)c1 (stereo not given) [ACEBUTOLOL] | Compound metabolized

Assay: as §1, with “Z-024” for “WLS-006”, “pig” for “human”, “ERS12561823” for “ERS12561741”
Details: 2 µM

Row | SMILES | Bacterial Biotransformation
19 | Cc1nc2n(c(=O)c1CCN1CCC(c3noc4cc(F)ccc34)CC1)CCCC2 [RISPERIDONE] | Compound metabolized
20 | CCCC(=O)Nc1ccc(OCC(O)CNC(C)C)c(C(C)=O)c1 (stereo not given) [ACEBUTOLOL] | Compound NOT metabolized

Assay: as §1, with “Z-028” for “WLS-006”, “mouse” for “human”, “ERS12561827” for “ERS12561741”
Details: 2 µM

Row | SMILES | Bacterial Biotransformation
21 | Cc1nc2n(c(=O)c1CCN1CCC(c3noc4cc(F)ccc34)CC1)CCCC2 [RISPERIDONE] | Compound metabolized
22 | CCCC(=O)Nc1ccc(OCC(O)CNC(C)C)c(C(C)=O)c1 (stereo not given) [ACEBUTOLOL] | Compound NOT metabolized

Details: human gut metagenome, 24 h, 2 µM
Remark: another data set of the same source

Row | SMILES | Bacterial Biotransformation
23 | Cc1nc2n(c(=O)c1CCN1CCC(c3noc4cc(F)ccc34)CC1)CCCC2 [RISPERIDONE] | Compound NOT metabolized
24 | CCCC(=O)Nc1ccc(OCC(O)CNC(C)C)c(C(C)=O)c1 (stereo not given) [ACEBUTOLOL] | Compound NOT metabolized

Details: human gut metagenome, 24 h, 2 µM
Remark: another data set of the same source

Row | SMILES | Bacterial Biotransformation
25 | Cc1nc2n(c(=O)c1CCN1CCC(c3noc4cc(F)ccc34)CC1)CCCC2 [RISPERIDONE] | Compound metabolized
26 | CCCC(=O)Nc1ccc(OCC(O)CNC(C)C)c(C(C)=O)c1 (stereo not given) [ACEBUTOLOL] | Compound metabolized

Details: human gut metagenome, 24 h, 2 µM
Remark: another data set of the same source

Row | SMILES | Bacterial Biotransformation
27 | Cc1nc2n(c(=O)c1CCN1CCC(c3noc4cc(F)ccc34)CC1)CCCC2 [RISPERIDONE] | Compound metabolized
28 | CCCC(=O)Nc1ccc(OCC(O)CNC(C)C)c(C(C)=O)c1 (stereo not given) [ACEBUTOLOL] | Compound metabolized

Assay: as §1, with “Z-027” for “WLS-006”, “to” for “to human gut”, “ERS12561826” for “ERS12561741”
Details: 2 µM

Row | SMILES | Bacterial Biotransformation
29 | Cc1nc2n(c(=O)c1CCN1CCC(c3noc4cc(F)ccc34)CC1)CCCC2 [RISPERIDONE] | Compound metabolized
30 | CCCC(=O)Nc1ccc(OCC(O)CNC(C)C)c(C(C)=O)c1 (stereo not given) [ACEBUTOLOL] | Compound NOT metabolized

Details: human gut metagenome, 24 h, 2 µM
Remark: another data set of the same source

Row | SMILES | Bacterial Biotransformation
31 | Cc1nc2n(c(=O)c1CCN1CCC(c3noc4cc(F)ccc34)CC1)CCCC2 [RISPERIDONE] | Compound metabolized
32 | CCCC(=O)Nc1ccc(OCC(O)CNC(C)C)c(C(C)=O)c1 (stereo not given) [ACEBUTOLOL] | Compound metabolized

Details: human gut metagenome, 24 h, 2 µM
Remark: another data set of the same source

Row | SMILES | Bacterial Biotransformation
33 | Cc1nc2n(c(=O)c1CCN1CCC(c3noc4cc(F)ccc34)CC1)CCCC2 [RISPERIDONE] | Compound metabolized
34 | CCCC(=O)Nc1ccc(OCC(O)CNC(C)C)c(C(C)=O)c1 (stereo not given) [ACEBUTOLOL] | Compound metabolized

Assay: as §1, with “Z-007” for “WLS-006”, “rat” for “human”, “ERS12561807” for “ERS12561741”
Details: 2 µM

Row | SMILES | Bacterial Biotransformation
35 | Cc1nc2n(c(=O)c1CCN1CCC(c3noc4cc(F)ccc34)CC1)CCCC2 [RISPERIDONE] | Compound metabolized
36 | CCCC(=O)Nc1ccc(OCC(O)CNC(C)C)c(C(C)=O)c1 (stereo not given) [ACEBUTOLOL] | Compound NOT metabolized

Details: human gut metagenome, 24 h, 2 µM
Remark: another data set of the same source

Row | SMILES | Bacterial Biotransformation
37 | Cc1nc2n(c(=O)c1CCN1CCC(c3noc4cc(F)ccc34)CC1)CCCC2 [RISPERIDONE] | Compound metabolized
38 | CCCC(=O)Nc1ccc(OCC(O)CNC(C)C)c(C(C)=O)c1 (stereo not given) [ACEBUTOLOL] | Compound metabolized

Assay: as §1, with “Z-013” for “WLS-006”, “rabbit” for “human”, “ERS12561813” for “ERS12561741”
Details: 2 µM

Row | SMILES | Bacterial Biotransformation
39 | Cc1nc2n(c(=O)c1CCN1CCC(c3noc4cc(F)ccc34)CC1)CCCC2 [RISPERIDONE] | Compound metabolized
40 | CCCC(=O)Nc1ccc(OCC(O)CNC(C)C)c(C(C)=O)c1 (stereo not given) [ACEBUTOLOL] | Compound NOT metabolized
